Measurements taken from publication PMC3479105, “K-134, a Phosphodiesterase 3 Inhibitor, Prevents Brain Damage by Inhibiting Thrombus Formation in a Rat Cerebral Infarction Model” (PLoS ONE, 2012).
Where two headings read alike, the source gives them in different places.

Key:
[1] = test system: platelet aggregation ex vivo; assay: Platelet aggregation ex vivo in rats after oral dosing; conditions: Rattus norvegicus, 300 mg/kg oral, 3 h after administration
Description: Cilostazol was orally administered to rats under non-fasting conditions in a single dose. […] Platelet-rich plasma (PRP) was prepared by centrifugation (450 × g, 8 min, 25°C) of blood. PRP was stimulated with adenosine diphosphate (ADP) (final concentration = 4 µM; MC Medical Inc., Tokyo, Japan) or collagen (final concentration = 5 µg/mL; MC Medical Inc.). Platelet aggregation was quantified by measuring the area under the curve (AUC) during the 5 or 7 min after addition of ADP or collagen, respectively, using a light transmittance aggregometer (Hema Tracer 313M; MC Medical Inc.).

[2] = Pharmacokinetics of cilostazol and its active metabolites in rats; format: in vivo, rat; conditions: single oral cilostazol 300 mg/kg, non-fasting male SD rats, n = 3, parent and metabolites
Description: Pharmacokinetic variables (Cmax, AUC, Tmax and T1/2) were calculated from the plasma drug concentration-time curve. Cilostazol was orally administered to rats under non-fasting conditions at a single dose of 300 mg/kg to determine the concentration-time profile in serum (n = 3). Values are means (± SEM). […]

[3] = set-up: method as in PMID 10702882; conditions: human healthy male, single dose 100 mg of cilostazol, cited from earlier work
[4] = test system: platelet aggregation ex vivo; set-up: method as in PMID 22269153; conditions: rats, single administration 30 mg/kg; cited from earlier work
bleeding time = assay: Tail bleeding time in mice; format: in vivo, mouse; conditions: single oral 30 mg/kg, 10 min before test, control 110±5 s, not significant
Description: K-134 and warfarin (Sigma Aldrich Co., MO, USA) were suspended and dissolved in 1% HPMC, respectively, and orally administered to ICR mice at 10 min or 24 h before testing of bleeding, respectively. Each mouse was placed in a restrainer, which exposes the tail. A 27G disposable needle (Terumo Co., Tokyo, Japan) was inserted about 6 mm into a tail vein 2 cm from the tip of the tail. Immediately after the operation, sheets of filter paper were placed under the injury site every 15 sec to absorb the blood, and the time point at which no blood was observed on the filter paper was regarded as the bleeding time.

[5] = test system: mouse platelet aggregation; assay: Mouse platelet aggregation in vitro (PRP, aggregometer); format: cell-based
Description: Platelet-rich plasma (PRP) was prepared by centrifugation (900 rpm, 15 min, at room temperature) of blood (05PR-22 centrifuge with a 03 rotor; Hitachi, Ltd., Tokyo, Japan), and the platelet count was adjusted to 5×10^5/µL with platelet-poor plasma prepared by centrifugation (3000 rpm, 10 min, at room temperature). PRP was incubated with antiplatelet agents at 37°C for 3 min and stimulated with collagen (final concentration, 15 µg/mL; MC Medical Inc., Tokyo, Japan) or adenosine diphosphate (ADP) (final concentration, 7.5 µM; MC Medical Inc.) (n = 5). Platelet aggregation was quantified by measuring the area under the curve (AUC) during the 5-min period after addition of trigger using a light transmittance aggregometer (PAM-8C; Mebanix Co., Ltd., Tokyo, Japan).

[6] = Plasma concentration of K-134 in mice; format: in vivo, mouse; conditions: male ICR mice, 10 min after administration, n = 6; for concentration at 10 min: mouse, plasma
Description: We also measured plasma concentration of K-134 at 10 min after a single oral administration of K-134 to male ICR mice (Japan SLC Inc., 5 weeks old).

SMILES: O=C1CCc2cc(OCCCCc3nnnn3C3CCCCC3)ccc2N1 [cilostazol]
- inhibition at 300 mg/kg ([1]; read-out: inhibition of ADP-induced platelet aggregation ex vivo): 27%
- inhibition at 300 mg/kg ([1]; read-out: inhibition of collagen-induced platelet aggregation ex vivo): 50%
- Tmax ([2]; male, SD, rat, plasma, po, 300 mg/kg, read-out: Tmax): > 3 h
- Cmax ([2]; rat, plasma): 2400 nM
- half-life ([2]; rat, plasma): 5.4 h
- AUC(0-t) ([2]; rat, plasma, read-out: AUC0-24h): 30.1 µM·h
- Tmax [2]: 5.8 h
- Cmax ([3]; converted from µg/L, read-out: Cmax): 1690 nM
- AUC0–72 h ([3]; converted from µg/L·h): 21.89 µM·h
- AUC0–72 h [3]: about 8087 µg/L·h
- Cmax [3]: about 625 µg/L

SMILES: O=C(NCCCOc1ccc2[nH]c(=O)ccc2c1)N(C1CC1)[C@@H]1CCCC[C@H]1O [K-134]
- inhibition of ADP-induced platelet aggregation ex vivo [4]: about 55%
- inhibition of collagen-induced platelet aggregation ex vivo [4]: ~79%
- bleeding time (bleeding time): 106 ± 5 s
- IC50 ([5]; ADP, read-out: IC50, mouse platelet aggregation induced by ADP): 6.7 µM
- IC50 ([5]; collagen, read-out: IC50, mouse platelet aggregation induced by collagen): 5.5 µM
- Plasma concentration of K-134 ([6]; 30 mg/kg single oral, 30 mg/kg): 13600 ± 2300 nM
- concentration at 10 min ([6]; 1 mg/kg single oral): 400 nM
- concentration at 10 min ([6]; 3 mg/kg single oral): 1100 ± 200 nM
- concentration at 10 min ([6]; 10 mg/kg single oral): 4300 ± 600 nM
- concentration at 10 min ([6]; 30 mg/kg single oral): 13600 ± 2300 nM
